Assay results published in PubChem BioAssay (NCI).
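How tested: cells in 96-well plates exposed to compound for 48 hours at five concentrations. TGI: total growth inhibition.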

Assays:
Test in all cases: DTP human tumour cell line panel, 48 h
HOP-92 NSCLC = test system: HOP-92 NSCLC
PC-3 prostate = test system: PC-3 prostate
MDA-MB-435 = test system: MDA-MB-435
EKVX NSCLC = test system: EKVX NSCLC
OVCAR-3 ovarian = test system: OVCAR-3 ovarian
K-562 leukemia = test system: K-562 leukemia
SF-539 CNS = test system: SF-539 CNS
A498 renal = test system: A498 renal
OVCAR-5 ovarian = test system: OVCAR-5 ovarian
UACC-62 melanoma = test system: UACC-62 melanoma
TK-10 renal = test system: TK-10 renal
MALME-3M melanoma = test system: MALME-3M melanoma
RPMI-8226 leukemia = test system: RPMI-8226 leukemia
HS 578T breast = test system: HS 578T breast
MDA-N = test system: MDA-N
SK-MEL-5 melanoma = test system: SK-MEL-5 melanoma
SF-295 CNS = test system: SF-295 CNS
SK-MEL-28 melanoma = test system: SK-MEL-28 melanoma
SK-MEL-2 melanoma = test system: SK-MEL-2 melanoma
UO-31 renal = test system: UO-31 renal
COLO 205 colon = test system: COLO 205 colon
CCRF-CEM leukemia = test system: CCRF-CEM leukemia
NCI-H460 lung = test system: NCI-H460 lung
HCC-2998 colon = test system: HCC-2998 colon
NCI-H23 lung = test system: NCI-H23 lung
T-47D breast = test system: T-47D breast
SF-268 CNS = test system: SF-268 CNS
UACC-257 melanoma = test system: UACC-257 melanoma
M14 melanoma = test system: M14 melanoma
SW-620 colon = test system: SW-620 colon
MDA-MB-231 breast = test system: MDA-MB-231 breast
LOX IMVI melanoma = test system: LOX IMVI melanoma
MOLT-4 leukemia = test system: MOLT-4 leukemia
MCF7 breast = test system: MCF7 breast
SR leukemia = test system: SR leukemia
RXF 393 renal = test system: RXF 393 renal
CAKI-1 renal = test system: CAKI-1 renal
SNB-19 CNS = test system: SNB-19 CNS
NCI/ADR-RES ovarian = test system: NCI/ADR-RES ovarian
IGROV1 ovarian = test system: IGROV1 ovarian
ACHN renal = test system: ACHN renal
KM12 colon = test system: KM12 colon
HCT-15 colon = test system: HCT-15 colon
SNB-75 CNS = test system: SNB-75 CNS
OVCAR-8 ovarian = test system: OVCAR-8 ovarian
DU-145 prostate = test system: DU-145 prostate
HOP-62 NSCLC = test system: HOP-62 NSCLC
OVCAR-4 ovarian = test system: OVCAR-4 ovarian
U251 CNS = test system: U251 CNS
786-0 renal = test system: 786-0 renal
A549 NSCLC = test system: A549 NSCLC
HL-60(TB) leukemia = test system: HL-60(TB) leukemia
HT29 colon = test system: HT29 colon
SK-OV-3 ovarian = test system: SK-OV-3 ovarian
NCI-H226 lung = test system: NCI-H226 lung
SN12C renal = test system: SN12C renal
NCI-H522 lung = test system: NCI-H522 lung
HCT-116 colon = test system: HCT-116 colon

Q: Which TGI (HOP-92 NSCLC) does the source give for `COC(=O)N1CC2(CO)C3CC=C(C(=O)Nc4ccccc4Br)C2C1C3Br` (configuration not stated) here?
A: > 50 µM

Q: And the TGI (PC-3 prostate)?
A: > 50 µM

Q: And the TGI (MDA-MB-435)?
A: > 50 µM

Q: What about the TGI (EKVX NSCLC) of the same molecule?
A: > 50 µM

Q: What about the TGI (OVCAR-3 ovarian) of the same molecule?
A: > 50 µM

Q: And the TGI (K-562 leukemia)?
A: > 50 µM

Q: What about the TGI (SF-539 CNS) of the same molecule?
A: > 50 µM

Q: What about the TGI (A498 renal) of the same molecule?
A: > 50 µM

Q: And the TGI (OVCAR-5 ovarian)?
A: > 50 µM

Q: What about the TGI (UACC-62 melanoma) of the same molecule?
A: > 50 µM

Q: And the TGI (TK-10 renal)?
A: > 50 µM

Q: And the TGI (MALME-3M melanoma)?
A: > 50 µM

Q: And the TGI (RPMI-8226 leukemia)?
A: > 50 µM

Q: And the TGI (HS 578T breast)?
A: > 50 µM

Q: What about the TGI (MDA-N) of the same molecule?
A: > 50 µM

Q: What about the TGI (SK-MEL-5 melanoma) of the same molecule?
A: > 50 µM

Q: And the TGI (SF-295 CNS)?
A: > 50 µM

Q: And the TGI (SK-MEL-28 melanoma)?
A: > 50 µM

Q: What about the TGI (SK-MEL-2 melanoma) of the same molecule?
A: > 50 µM

Q: What about the TGI (UO-31 renal) of the same molecule?
A: > 50 µM

Q: What about the TGI (COLO 205 colon) of the same molecule?
A: > 50 µM

Q: And the TGI (CCRF-CEM leukemia)?
A: > 50 µM

Q: What about the TGI (NCI-H460 lung) of the same molecule?
A: > 50 µM

Q: What about the TGI (HCC-2998 colon) of the same molecule?
A: > 50 µM

Q: What about the TGI (NCI-H23 lung) of the same molecule?
A: > 50 µM

Q: And the TGI (T-47D breast)?
A: > 50 µM

Q: What about the TGI (SF-268 CNS) of the same molecule?
A: > 50 µM

Q: And the TGI (UACC-257 melanoma)?
A: > 50 µM

Q: What about the TGI (M14 melanoma) of the same molecule?
A: > 50 µM

Q: What about the TGI (SW-620 colon) of the same molecule?
A: > 50 µM

Q: What about the TGI (MDA-MB-231 breast) of the same molecule?
A: > 50 µM

Q: And the TGI (LOX IMVI melanoma)?
A: > 50 µM

Q: And the TGI (MOLT-4 leukemia)?
A: > 50 µM

Q: What about the TGI (MCF7 breast) of the same molecule?
A: > 50 µM

Q: And the TGI (SR leukemia)?
A: > 50 µM

Q: What about the TGI (RXF 393 renal) of the same molecule?
A: > 50 µM

Q: What about the TGI (CAKI-1 renal) of the same molecule?
A: > 50 µM

Q: What about the TGI (SNB-19 CNS) of the same molecule?
A: > 50 µM

Q: What about the TGI (NCI/ADR-RES ovarian) of the same molecule?
A: > 50 µM

Q: And the TGI (IGROV1 ovarian)?
A: > 50 µM

Q: And the TGI (ACHN renal)?
A: > 50 µM

Q: What about the TGI (KM12 colon) of the same molecule?
A: > 50 µM

Q: And the TGI (HCT-15 colon)?
A: > 50 µM

Q: What about the TGI (SNB-75 CNS) of the same molecule?
A: > 50 µM

Q: And the TGI (OVCAR-8 ovarian)?
A: > 50 µM

Q: And the TGI (DU-145 prostate)?
A: > 50 µM

Q: And the TGI (HOP-62 NSCLC)?
A: > 50 µM

Q: And the TGI (OVCAR-4 ovarian)?
A: > 50 µM

Q: What about the TGI (U251 CNS) of the same molecule?
A: > 50 µM

Q: What about the TGI (786-0 renal) of the same molecule?
A: > 50 µM

Q: And the TGI (A549 NSCLC)?
A: > 50 µM

Q: And the TGI (HL-60(TB) leukemia)?
A: > 50 µM

Q: What about the TGI (HT29 colon) of the same molecule?
A: > 50 µM

Q: What about the TGI (SK-OV-3 ovarian) of the same molecule?
A: > 50 µM

Q: What about the TGI (NCI-H226 lung) of the same molecule?
A: > 50 µM

Q: `COC(=O)c1c2c(cc3c1CC1(Cc4ccccc4C1=O)C3)CCC2` (configuration not stated) was tested. Which TGI (HOP-92 NSCLC) did it give?
A: > 100 µM

Q: And the TGI (PC-3 prostate)?
A: > 100 µM

Q: What about the TGI (SN12C renal) of the same molecule?
A: > 100 µM

Q: And the TGI (MDA-MB-435)?
A: 40.3 µM

Q: What about the TGI (EKVX NSCLC) of the same molecule?
A: > 100 µM

Q: What about the TGI (OVCAR-3 ovarian) of the same molecule?
A: > 100 µM

Q: And the TGI (K-562 leukemia)?
A: > 100 µM

Q: And the TGI (SF-539 CNS)?
A: > 100 µM

Q: And the TGI (A498 renal)?
A: > 100 µM

Q: What about the TGI (OVCAR-5 ovarian) of the same molecule?
A: > 100 µM

Q: And the TGI (TK-10 renal)?
A: > 100 µM

Q: And the TGI (MALME-3M melanoma)?
A: 79.9 µM

Q: What about the TGI (RPMI-8226 leukemia) of the same molecule?
A: 99.8 µM

Q: And the TGI (HS 578T breast)?
A: > 100 µM

Q: And the TGI (MDA-N)?
A: 34.2 µM

Q: What about the TGI (SK-MEL-5 melanoma) of the same molecule?
A: 29.5 µM

Q: What about the TGI (SF-295 CNS) of the same molecule?
A: > 100 µM

Q: And the TGI (SK-MEL-28 melanoma)?
A: > 100 µM

Q: And the TGI (SK-MEL-2 melanoma)?
A: > 100 µM

Q: What about the TGI (UO-31 renal) of the same molecule?
A: > 100 µM

Q: And the TGI (COLO 205 colon)?
A: 23.4 µM

Q: And the TGI (CCRF-CEM leukemia)?
A: > 100 µM

Q: And the TGI (NCI-H460 lung)?
A: > 100 µM

Q: What about the TGI (HCC-2998 colon) of the same molecule?
A: > 100 µM

Q: And the TGI (NCI-H23 lung)?
A: > 100 µM

Q: And the TGI (NCI-H522 lung)?
A: > 100 µM

Q: What about the TGI (T-47D breast) of the same molecule?
A: > 100 µM

Q: And the TGI (SF-268 CNS)?
A: > 100 µM

Q: What about the TGI (UACC-257 melanoma) of the same molecule?
A: > 100 µM

Q: And the TGI (M14 melanoma)?
A: > 100 µM

Q: What about the TGI (SW-620 colon) of the same molecule?
A: > 100 µM

Q: And the TGI (MDA-MB-231 breast)?
A: > 100 µM

Q: What about the TGI (LOX IMVI melanoma) of the same molecule?
A: > 100 µM

Q: And the TGI (MOLT-4 leukemia)?
A: 47.4 µM

Q: What about the TGI (MCF7 breast) of the same molecule?
A: > 100 µM

Q: And the TGI (SR leukemia)?
A: 58.5 µM

Q: What about the TGI (RXF 393 renal) of the same molecule?
A: 98.4 µM

Q: What about the TGI (CAKI-1 renal) of the same molecule?
A: > 100 µM

Q: What about the TGI (SNB-19 CNS) of the same molecule?
A: > 100 µM

Q: What about the TGI (NCI/ADR-RES ovarian) of the same molecule?
A: 79.3 µM

Q: What about the TGI (IGROV1 ovarian) of the same molecule?
A: > 100 µM

Q: What about the TGI (ACHN renal) of the same molecule?
A: > 100 µM

Q: And the TGI (KM12 colon)?
A: 61.5 µM

Q: And the TGI (HCT-15 colon)?
A: > 100 µM

Q: What about the TGI (SNB-75 CNS) of the same molecule?
A: > 100 µM

Q: What about the TGI (OVCAR-8 ovarian) of the same molecule?
A: > 100 µM

Q: What about the TGI (DU-145 prostate) of the same molecule?
A: > 100 µM

Q: What about the TGI (HOP-62 NSCLC) of the same molecule?
A: > 100 µM

Q: What about the TGI (OVCAR-4 ovarian) of the same molecule?
A: > 100 µM

Q: And the TGI (U251 CNS)?
A: > 100 µM

Q: What about the TGI (786-0 renal) of the same molecule?
A: > 100 µM

Q: What about the TGI (A549 NSCLC) of the same molecule?
A: > 100 µM

Q: What about the TGI (HCT-116 colon) of the same molecule?
A: > 100 µM

Q: And the TGI (HL-60(TB) leukemia)?
A: 53.1 µM

Q: What about the TGI (HT29 colon) of the same molecule?
A: 96.9 µM

Q: What about the TGI (SK-OV-3 ovarian) of the same molecule?
A: > 100 µM

Q: What about the TGI (NCI-H226 lung) of the same molecule?
A: 44.2 µM
